From the NIST ThermoML archive (doi:10.1016/j.fluid.2017.09.010)
Numbers after ± are expanded uncertainties.

Details: Liquid, Ebulliometric method (Recirculating still)

## CC(=O)OC(C)C [1-methylethyl ethanoate]
361.8 K
  vapor or sublimation pressure: 101 ± 1 kPa

## CC(C)O [propan-2-ol]
355.4 K
  vapor or sublimation pressure: 101 ± 1 kPa

## O [water]
373 K
  vapor or sublimation pressure: 101 ± 5 kPa

## CCCOC(C)=O [propyl ethanoate]
374.2 K
  vapor or sublimation pressure: 101 ± 1 kPa
